Experimental data from patent US8309685B2 (Celgene Avilomics Research, Inc., priority 2007, dated 2012).
Like-named read-outs stand apart in the source and are kept apart here.

Tests used:
[1] = biological target: T1, wild type HCV NS3/4A 1b protease enzyme (Hepatitis C virus genotype 1b, UniProt P26663); experiment: HCV Protease FRET Assay (IC50_APP), wild type; format: biochemical
T1 construct: 10× stocks of NS3/4A protease enzyme from Bioenza (Mountain View, Calif.); purchased Bioenza (Mountain View, Calif.)

[2] = tested on: HCV RNA replicon in cell line ET (luc-ubi-neo/ET), human Huh7 hepatoma; experiment: Luciferase Assay (Example 35), replicon-derived luciferase activity; format: cell-based; conditions: Hepatitis C virus, Huh-7, assay described in Example 35
Description: The compounds were assayed to evaluate the antiviral activity and cytotoxicity of compounds using replicon-derived luciferase activity. This assay used the cell line ET (luc-ubi-neo/ET), which is a human Huh7 hepatoma cell line that contains an HCV RNA replicon with a stable luciferase (Luc) reporter and cell culture-adaptive mutations. The ET cell line was grown in a 5% CO2 incubator at 37° C. in Dulbecco's modified essential media (DMEM) supplemented with 2 mM L-glutamine, nonessential amino acids, 100 U of penicillin/ml, 100 μg of streptomycin/mL, and 10% fetal bovine serum. G418 (Geneticin; Invitrogen) was added at a final concentration of 400 ug//mL.
All cell culture reagents were obtained from Invitrogen (Carlsbad). Cells were trypsinized (1% trypsin:EDTA) and plated out at 5×10^3 cells/well in white 96-well assay plates (Costar) dedicated to cell number (cytotoxicity) or antiviral activity assessments. Test compounds were added at six 3-fold concentrations each and the assay was run in DMEM, 5% FBS, 1% pen-strep, 1% glutamine, 1% non essential amino acid. Human interferon alpha-2b (PBL Biolabs, New Brunswick, N.J.) was included in each run as a positive control compound. Cells were processed 72 hr post test compound addition when the cells were still subconfluent. Antiviral activity was measured by analyzing replicon-derived luciferase activity using the Steady-Glo Luciferase Assay System (Promega, Madison, Wis.) according to manufacturer's instruction. The number of cells in each well was determined by Cell Titer Blue Assay (Promega). Compound profile was derived by calculating applicable EC50 (effective concentration inhibiting virus replication by 50%), EC90 (effective concentration inhibiting virus replication by 90%), IC50 (concentration decreasing cell viability by 50%) and SI50 (selective index: […]) values.

[3] = biological target: T2, R155K mutant of the HCV NS3/4A 1b protease enzyme (Hepatitis C virus genotype 1b, UniProt P26663, R1181K); experiment: HCV Protease FRET Assay (IC50_APP), R155K mutant; format: biochemical
T2 construct: 10× stocks of NS3/4A protease enzyme from Bioenza (Mountain View, Calif.); purchased Bioenza (Mountain View, Calif.)
Description: HCV Protease FRET Assay for WT and Mutated NS3/4A 1b Enzymes (IC50—APP).
The following protocol was used to generate “apparent” IC50 (IC50—APP) values as depicted in Table 6, below. […] 5 μL of each enzyme were added to Corning (#3575) 384-well, black, microtiter plates (Corning, N.Y.) after spotting a 0.5 μL volume of 50% DMSO and serially diluted compounds prepared in 50% DMSO. Protease reactions were immediately started after enzyme addition with the addition of 45 μL of the FRET substrate and monitored for 60-90 minutes at λex485/λem520 in a Synergy^4 plate reader from BioTek (Winooski, Vt.). At the conclusion of each assay, progress curves from each well were examined for linear reaction kinetics and fit statistics (R^2, 95% confidence intervals, absolute sum of squares).
The compound numbers correspond to the compound numbers in Table 3. […] ;

[4] = biological target: T3, D168A mutant of the HCV NS3/4A 1b protease enzyme (Hepatitis C virus genotype 1b, UniProt P26663, D1194A); experiment: HCV Protease FRET Assay (IC50_APP), D168A mutant; format: biochemical
T3 construct: 10× stocks of NS3/4A protease enzyme from Bioenza (Mountain View, Calif.); purchased Bioenza (Mountain View, Calif.)

[5] = read-out: IC50_APP, WT, apparent IC50, wild type NS3/4A 1b
[6] = apparent IC50, R155K mutant; read-out: IC50_APP, HCV R155K
[7] = apparent IC50, D168A mutant; read-out: IC50_APP, HCV D168A

Row | SMILES | IC50 [1, 5] [nM] | EC90 [2] [nM] | EC50 [2] [nM] | IC50 [3, 6] [nM] | IC50 [4, 7] [nM] | IC50 ([3]; read-out: IC50_APP, HCV R155K; apparent IC50, R155K mutant) [nM] | IC50 ([4]; read-out: IC50_APP, HCV D168A; apparent IC50, D168A mutant) [nM] | IC50 [1] [nM]
1 | C=C[C@@H]1C[C@]1(NC(=O)[C@@H]1C[C@@H](Oc2nccc3cc(OC)ccc23)CN1C(=O)[C@H](CCC(=O)/C(C)=C/C)NC(=O)OC(C)(C)C)C(=O)NS(=O)(=O)C1CC1 [Compound I-95, {1-[2-(1-Cyclopropanesulfonylaminocarbonyl-2-vinyl-cyclopropylcarbamoyl)-4-(6-methoxy-isoquinolin-1-yloxy)-pyrrolidine-1-carbonyl]-5-methyl-4-oxo-hept-5-enyl}-carbamic acid tert-butyl ester] | < 10 | 100 to 1000 | 10 to 100 | 10 to 100 | 100 to 1000 | – | – | –
2 | C=CC(=O)NC[C@H](NC(=O)OC(C)(C)C)C(=O)N1C[C@H](Oc2nccc3ccccc23)C[C@H]1C(=O)N[C@]1(C(=O)NS(=O)(=O)C2CC2)C[C@H]1C=C [Compound I-97, {1-(Acryloylamino-methyl)-2-[2-(1-cyclopropanesulfonylaminocarbonyl-2-vinyl-cyclopropylcarbamoyl)-4-(isoquinolin-1-yloxy)-pyrrolidin-1-yl]-2-oxo-ethyl}-carbamic acid tert-butyl ester] | < 10 | 100 to 1000 | 100 to 1000 | – | – | 100 to 1000 | 100 to 1000 | –
3 | C=CC(=O)N(C)C[C@H](NC(=O)OC(C)(C)C)C(=O)N1C[C@H](Oc2nccc3ccccc23)C[C@H]1C(=O)N[C@]1(C(=O)NS(=O)(=O)C2CC2)C[C@H]1C=C [Compound I-98, {1-[(Acryloyl-methyl-amino)-methyl]-2-[2-(1-cyclopropanesulfonylaminocarbonyl-2-vinyl-cyclopropylcarbamoyl)-4-(isoquinolin-1-yloxy)-pyrrolidin-1-yl]-2-oxo-ethyl}-carbamic acid tert-butyl ester] | 10 to 100 | 100 to 1000 | 10 to 100 | 100 to 1000 | 100 to 1000 | – | – | –
4 | C=CCN(C[C@H](NC(=O)OC(C)(C)C)C(=O)N1C[C@H](Oc2nccc3cc(OC)ccc23)C[C@H]1C(=O)N[C@]1(C(=O)NS(=O)(=O)C2CC2)C[C@H]1C=C)C(=O)C=C [Compound I-99, {1-[(Acryloyl-allyl-amino)-methyl]-2-[2-(1-cyclopropanesulfonylaminocarbonyl-2-vinyl-cyclopropylcarbamoyl)-4-(6-methoxy-isoquinolin-1-yloxy)-pyrrolidin-1-yl]-2-oxo-ethyl}-carbamic acid tert-butyl ester] | < 10 | – | 10 to 100 | 100 to 1000 | 1000 to 10000 | – | – | –
5 | C=CC(=O)N[C@H](C)C(=O)N1C[C@H](Oc2nccc3cc(OC)ccc23)C[C@H]1C(=O)N[C@]1(C(=O)NS(=O)(=O)C2CC2)C[C@H]1C=C [Compound I-100] | < 10 | – | 10 to 100 | < 10 | 10 to 100 | – | – | –
6 | C=CC(=O)N[C@@H](C(=O)N1C[C@H](Oc2nccc3cc(OC)ccc23)C[C@H]1C(=O)N[C@]1(C(=O)NS(=O)(=O)C2CC2)C[C@H]1C=C)C(C)C [Compound I-101] | < 10 | – | 10 to 100 | 10 to 100 | 100 to 1000 | – | – | –
7 | C=C[C@@H]1C[C@]1(NC(=O)[C@@H]1C[C@@H]2CN1C(=O)[C@H](CCC(=O)C=C(C)C)NC(=O)OCCC/C=C/c1ccc3ccnc(c3c1)O2)C(=O)NS(=O)(=O)C1CC1 [Compound I-102] | – | 10 to 100 | < 10 | 10 to 100 | 1000 to 10000 | – | – | < 10
8 | C=C[C@@H]1C[C@]1(NC(=O)[C@@H]1C[C@@H](Oc2nccc3cc(OC)ccc23)CN1C(=O)[C@H](CC(=O)C=C(C)C)NC(=O)OC(C)(C)C)C(=O)NS(=O)(=O)C1CC1 [Compound I-129] | < 10 | – | < 10 | 10 to 100 | 100 to 1000 | – | – | –
9 | C=CC(=O)N[C@H](C(=O)N1C[C@H](Oc2nccc3cc(OC)ccc23)C[C@H]1C(=O)N[C@]1(C(=O)NS(=O)(=O)C2CC2)C[C@H]1C=C)C(C)(C)O [Compound I-131] | < 10 | – | 100 to 1000 | 10 to 100 | 10 to 100 | – | – | –
10 | C=C[C@@H]1C[C@]1(NC(=O)[C@@H]1C[C@@H](Oc2nccc3cc(OC)ccc23)CN1C(=O)[C@H](CC(=O)C(=C)C)NC(=O)OC(C)(C)C)C(=O)NS(=O)(=O)C1CC1 [Compound I-132] | < 10 | – | 100 to 1000 | < 10 | < 10 | – | – | –
11 | C=C[C@@H]1C[C@]1(NC(=O)[C@@H]1C[C@@H](Oc2nccc3cc(OC)ccc23)CN1C(=O)[C@H](CCC(=O)C#CC(C)(C)C)NC(=O)OC(C)(C)C)C(=O)NS(=O)(=O)C1CC1 [Compound I-135] | < 10 | – | 10 to 100 | < 10 | < 10 | – | – | –
12 | C=C[C@@H]1C[C@]1(NC(=O)[C@@H]1C[C@@H](Oc2nccc3cc(OC)ccc23)CN1C(=O)[C@H](CCC(=O)/C=C\C(C)(C)C)NC(=O)OC(C)(C)C)C(=O)NS(=O)(=O)C1CC1 [Compound I-136] | < 10 | – | < 10 | 100 to 1000 | 100 to 1000 | – | – | –
13 | C=C[C@@H]1C[C@]1(NC(=O)[C@@H]1C[C@@H](Oc2nccc3cc(OC)ccc23)CN1C(=O)[C@H](CCC(=O)C#Cc1ccccc1)NC(=O)OC(C)(C)C)C(=O)NS(=O)(=O)C1CC1 [Compound I-138] | < 10 | – | 100 to 1000 | < 10 | 10 to 100 | – | – | –
14 | C=C[C@@H]1C[C@]1(NC(=O)[C@@H]1C[C@@H](Oc2nccc3cc(OC)ccc23)CN1C(=O)[C@H](CCC(=O)/C=C/C)NC(=O)OC(C)(C)C)C(=O)NS(=O)(=O)C1CC1 [Compound I-139] | < 10 | – | 10 to 100 | < 10 | < 10 | – | – | –
15 | C=C(C)C(=O)C[C@H](NC(=O)OC(C)(C)C)C(=O)N1C[C@H](Oc2nccc3cc(OC)ccc23)C[C@H]1C(=O)N[C@]1(C(=O)NS(=O)(=O)C2CC2)C[C@H]1CC [Compound I-140] | < 10 | – | 100 to 1000 | < 10 | 10 to 100 | – | – | –
16 | C=C[C@@H]1C[C@]1(NC(=O)[C@@H]1C[C@@H](Oc2nccc3cc(OC)ccc23)CN1C(=O)[C@H](CCC(=O)/C=C/C1CCCC1)NC(=O)OC(C)(C)C)C(=O)NS(=O)(=O)C1CC1 [Compound I-141, tert-butyl-(S,E)-7-cyclopentyl-1-((2S,4R)-2-((1R,2S)-1-(cyclopropylsulfonylcarbamoyl)-2-vinylcyclopropylcarbamoyl)-4-(6-methoxyisoquinolin-1-yloxy)pyrrolidin-1-yl)-1,5-dioxohept-6-en-2-ylcarbamate] | – | – | < 10 | 10 to 100 | 100 to 1000 | – | – | < 10
17 | C=C[C@@H]1C[C@]1(NC(=O)[C@@H]1C[C@@H](Oc2nccc3cc(OC)ccc23)CN1C(=O)[C@@H](C)NC(=O)CC)C(=O)NS(=O)(=O)C1CC1 [I^R-100, (2S,4R)—N-((1R,2S)-1-(cyclopropylsulfonylcarbamoyl)-2-vinylcyclopropyl)-4-(6-methoxyisoquinolin-1-yloxy)-1-((R)-2-propionamidopropanoyl)pyrrolidine-2-carboxamide] | – | – | 1000 to 10000 | 1000 to 10000 | 1000 to 10000 | – | – | 100 to 1000
